Source: patent publication US20090324743A1, “PULMONARY DRUG DELIVERY” (UNIVERSITY OF STRATHCLYDE, priority 2008, published 2009)

How the values were obtained:
[1] = Cisplatin levels in samples from mice treated by inhalation or intravenous injection (HPLC); format: in vivo, BALB/c mice; conditions: for Mean cisplatin concentration, Kidney / Mean cisplatin concentration, Liver / Mean cisplatin concentration, Lung lavages / Mean cisplatin concentration, Lungs / Mean cisplatin concentration, Serum / Mean cisplatin concentration, Spleen: 5 minutes after dosing
Protocol: Mice were treated with the appropriate drug formulation either by intravenous injection of 0.2 ml of the appropriate drug formulation or PBS pH 7.4/saline (controls) or by inhalation with the appropriate drug formulation or saline (controls) using the Buxco® nebulisation system. 0.5 ml of the appropriate formulation or saline was added to the nebuliser which was attached to a Volumatic™ Spacer (Allen and Hanbury, Uxbridge, Middlesex). After 1.5 mins of nebulisation, the nebuliser was switched off, and the mice were exposed to the resulting aerosol for a further 5 minutes. […] Blood was taken by cardiac puncture and allowed to clot by storing for up to 12 hours at 4° C. Serum was separated from clotted blood sample by centrifuging at 13,000 rpm at 4° C., and transferred to a clean eppendorf tube. The lungs of the mouse were inflated by introducing two samples of 0.8 ml PBS pH 7.4 via the trachea and the resulting lung lavages were transferred to a clean eppendorf tube. Various organs were removed from the mouse and stored in 1.5 ml microfuge tubes. All the samples were stored at −20° C. until cisplatin levels within the samples could be determined using an HPLC assay.

B16 F0 cells [2] = test: In vivo lung cancer efficacy study, organ weights; set-up: species or system BALB/c mice; conditions: sacrificed day 14; for Lung weight: Table 9
Protocol: BALB/c mice (n=8/treatment) were injected intravenously on day 0 with 1-5×10^5 B16 F0 cells which form metastatic lung and liver tumours in mice (Nakurmura et al., 2002). On day 7 mice were treated either by intravenous injection of 0.2 ml of the appropriate drug formulation or PBS pH 7.4/saline (controls) or by inhalation with the appropriate drug formulation or saline using the Buxco® nebulisation system. 0.5 ml of the appropriate formulation or saline was added to the nebuliser which was attached to a Volumatic™ Spacer (Allen and Hanbury, Uxbridge, Middlesex). After 1.5 mins of nebulisation the nebuliser was switched off and the mice were exposed to the resulting aerosol for a further 5 minutes. Mice were sacrificed on day 14, body weight and the weight of the spleen, liver, lungs and kidney assessed. Lung weight was taken as an indirect measure of tumour burden. In some cases mice were dosed on days 4, 7, 9 and 11. Tumours were easily visible as black areas on the surface of the lungs and liver.

B16-F0 cells [3] = test: Tumour development / liver metastases, organ weight and histology on day 21; format: in vivo, BALB/c male mice
Protocol: (§1) A number of studies have been completed where mice were treated on day 7 (post-tumour induction) with different cisplatin formulations by inhalation and the effect on subsequent tumour burdens, based on organ weight or direct assessment of the number and size distribution of tumours, was assessed 14 days later. The lungs, liver and spleen were cut into longitudinal slices and the kidney bisected and placed in a tissue cassette. After routine processing in paraffin wax, […] sections were mounted on a glass slide, dewaxed in 100% xylene and serially rehydrated in graded ethanol to water. Sections were then stained with haematoxylin and eosin and examined by light microscopy. For each organ the number and size of tiny (unmeasurable), small, medium and large tumours was determined counted in one H&E section. The size of the largest tumour deposit was also noted. The dimensions used to characterise tumours was small (0.5 to 1.4 mm), medium (1.5 to 2.9 mm), or large (>3 mm largest dimension). The percentage of tiny tumours was calculated using the total number of tumours present in the section.

B16-F0 cells [4] = test: as above; format: in vivo, C57BL/6 male mice; conditions: Table 12 C57BL/6 male
Protocol: as §1

Leishmania donovani = test: In vivo efficacy study using Leishmania donovani; set-up: species or system BALB/c mice; conditions: iv 0.2 ml (0.5 mg/ml cisplatin) on day 7 post-infection; burdens seven days later
Protocol: BALB/c mice were infected by intravenous injection (tail vein, no anaesthetic) with 1-2×10^7 L. donovani amastigotes (Carter et al., 1988). The day of parasite administration to the mice was designated day 0 of the experiment. On day 7 post-infection mice were treated by intravenous injection with 0.2 ml of the appropriate formulation by intravenous injection, without anaesthetic (n=4/treatment). On day 14 impression smears of the spleen and liver, and a smear of bone marrow, were made on to an individual glass microscope slide for each mouse at sacrifice. The slides were fixed in methanol for 30 secs, stained in 10% aqueous Giemsa stain (BDH, VWR International Ltd., Poole, UK) for 20 minutes, and then allowed to air dry. The number of parasites present/1000 host nuclei for the spleen, liver and bone marrow for each sample was determined at ×1000 magnification. The LDU was calculated by multiplying the number of parasites present/1000 host nuclei by the organ weight (gms) for the spleen and liver.

B16 F0 cells [5] = test: In vivo lung cancer efficacy study, organ weights; conditions: Table 8; BALB/c female mice; inhalation day 7; Free drug (1 mg/ml), Processed cisplatin-NIV (0.5 mg/ml); sacrificed day 23
[6] = room temperature; cited from earlier work
[7] = after intravenous administration; cited from earlier work
[8] = Table 3, inhalation 6.5 minutes, 0.5 ml of 0.5 mg/ml
[9] = Table 4, inhalation 6.5 minutes, 0.5 ml of 0.5 mg/ml
[10] = Table 5, 0.5 mg/ml inhalation 6.5 mins on day 7
[11] = Table 5, 4.44 mg/kg iv (0.2 ml of 0.5 mg/ml) on day 7
[12] = Table 6 Expt 1, inhalation on days 4, 7, 9 and 11, cisplatin solution 0.5 mg/ml, processed cisplatin-NIV as prepared
[13] = Table 6 Expt 2, inhalation day 7 only, 0.1 mg/ml
[14] = Table 10, inhalation day 7, cisplatin solution 1 mg/ml, cisplatin-NIV 0.5 mg/ml
[15] = Table 11, inhalation day 7, cisplatin solution 1 mg/ml, cisplatin-NIV 0.1 mg/ml
[16] = Table 11, solution 1 mg/ml, NIV 0.1 mg/ml
[17] = Table 11, solution 1 mg/ml, NIV 0.1 mg/ml, large >3 mm
[18] = Table 11, solution 1 mg/ml, NIV 0.1 mg/ml, medium 1.5 to 2.9 mm
[19] = Table 11, solution 1 mg/ml, NIV 0.1 mg/ml, small 0.5 to 1.4 mm
[20] = Table 12 BALB/c male, inhalation day 7, cisplatin solution 1 mg/ml, cisplatin-NIV 0.5 mg/ml
[21] = Table 12 BALB/c male, solution 1 mg/ml, NIV 0.5 mg/ml
[22] = inhalation day 7, cisplatin solution 1 mg/ml, cisplatin-NIV 0.5 mg/ml
[23] = solution 1 mg/ml, NIV 0.5 mg/ml

Detection of cisplatin by conventional HPLC analysis ([1]; 15 minutes after dosing): not possible to detect
Mean cisplatin concentration, Kidney [1, 8]: 6.81 ± 2.53 μg/ml/g tissue
Mean cisplatin concentration, Liver [1, 8]: 0.037 ± 0.04 μg/ml/g tissue
Mean cisplatin concentration, Lung lavages [1, 8]: 0.004 ± 0.002 µg/mL
Mean cisplatin concentration, Lungs [1, 8]: 0 ± 0 μg/ml/g tissue
Mean cisplatin concentration, Serum [1, 8]: 0.268 ± 0.1 µg/mL
Mean cisplatin concentration, Spleen [1, 8]: 0.018 ± 0.01 μg/ml/g tissue
Mean cisplatin concentration, Kidney ([1]; Table 3, iv 0.2 ml, 0.5 mg/ml): 0.951 ± 0.35 μg/ml/g tissue
Mean cisplatin concentration, Liver ([1]; Table 3, iv 0.2 ml, 0.5 mg/ml): 0.19 ± 0.13 μg/ml/g tissue
Mean cisplatin concentration, Lung lavages ([1]; Table 3, iv 0.2 ml, 0.5 mg/ml): 0.13 ± 0.07 µg/mL
Mean cisplatin concentration, Lungs ([1]; Table 3, iv 0.2 ml, 0.5 mg/ml): 0 ± 0 μg/ml/g tissue
Mean cisplatin concentration, Serum ([1]; Table 3, iv 0.2 ml, 0.5 mg/ml): 0.296 ± 0.13 µg/mL
Mean cisplatin concentration, Spleen ([1]; Table 3, iv 0.2 ml, 0.5 mg/ml): 0.065 ± 0.02 μg/ml/g tissue
Mean cisplatin concentration, Kidney [1, 9]: 0.55 ± 0.48 μg/ml/g tissue
Mean cisplatin concentration, Liver [1, 9]: 0.032 ± 0.02 μg/ml/g tissue
Mean cisplatin concentration, Lung lavages [1, 9]: 0.095 ± 0.06 µg/mL
Mean cisplatin concentration, Lungs [1, 9]: 0.032 ± 0.15 μg/ml/g tissue
Mean cisplatin concentration, Serum [1, 9]: 0 ± 0 µg/mL
Mean cisplatin concentration, Spleen [1, 9]: 0.346 ± 0.19 μg/ml/g tissue
Mean cisplatin concentration, Kidney ([1]; Table 4, iv 0.2 ml, 0.5 mg/ml): 0.55 ± 0.48 μg/ml/g tissue
Mean cisplatin concentration, Liver ([1]; Table 4, iv 0.2 ml, 0.5 mg/ml): 0.032 ± 0.02 μg/ml/g tissue
Mean cisplatin concentration, Lung lavages ([1]; Table 4, iv 0.2 ml, 0.5 mg/ml): 0.095 ± 0.06 µg/mL
Mean cisplatin concentration, Lungs ([1]; Table 4, iv 0.2 ml, 0.5 mg/ml): 0.032 ± 0.015 μg/ml/g tissue
Mean cisplatin concentration, Serum ([1]; Table 4, iv 0.2 ml, 0.5 mg/ml): 0.207 ± 0.02 µg/mL
Mean cisplatin concentration, Spleen ([1]; Table 4, iv 0.2 ml, 0.5 mg/ml): 0.346 ± 0.10 μg/ml/g tissue
SMILES: [NH2][Pt]([NH2])([Cl])[Cl] [Cisplatin solution, cisplatin]
Mean organ weight, Liver (B16 F0 cells [2]; [10]): 1.47 ± 0.05 g
Mean organ weight, Lungs (B16 F0 cells [2]; [10]): 0.22 ± 0.01 g
Mean organ weight, Liver (B16 F0 cells [2]; [11]): 1.44 ± 0.16 g
Mean organ weight, Lungs (B16 F0 cells [2]; [11]): 0.42 ± 0.03 g
Mean organ weight, Liver (B16 F0 cells [2]; [12]): 1.19 ± 0.07 g
Mean organ weight, Lungs (B16 F0 cells [2]; [12]): 0.21 ± 0.01 g
Mean organ weight, Liver (B16 F0 cells [2]; [13]): 1.30 ± 0.03 g
Mean organ weight, Lungs (B16 F0 cells [2]; [13]): 0.21 ± 0.01 g
Lung weight (B16 F0 cells [2]; Female mice, inhalation day 7, 1 mg/ml): 0.19 ± 0.01
Lung weight (B16 F0 cells [2]; Male mice, inhalation day 7, 0.5 mg/ml): 0.23 ± 0.02
% animals with visible metastases, Liver (B16-F0 cells [3]; [14]): (100%)
% animals with visible metastases, Lung (B16-F0 cells [3]; [14]): (100%)
Mean weight, Liver (B16-F0 cells [3]; [14]): 1.53 ± 0.03 g
Mean weight, Lung (B16-F0 cells [3]; [14]): 0.20 ± 0.01 g
Liver Weight (B16-F0 cells [3]; [15]): 1.65 ± 0.10
Lungs Histology, percentage of tiny tumours (B16-F0 cells [3]; [15]): Tiny 60%
Lungs Weight (B16-F0 cells [3]; [15]): 0.22 ± 0.01
Liver Histology, D largest tumour mass, breadth (B16-F0 cells [3]; [16]): 1.6 ± 0.43
Liver Histology, D largest tumour mass, length (B16-F0 cells [3]; [16]): D 2.38
Lungs Histology, D largest tumour mass, breadth (B16-F0 cells [3]; [16]): 1.19 ± 0.23
Lungs Histology, D largest tumour mass, length (B16-F0 cells [3]; [16]): D 1.4 ± 0.37 ×
Liver Histology, number of large tumours (L) (B16-F0 cells [3]; [17]): L 3.8 ± 2.15
Lungs Histology, number of large tumours (L) (B16-F0 cells [3]; [17]): L 0.40 ± 0.24
Liver Histology, number of medium tumours (M) (B16-F0 cells [3]; [18]): M 2.2 ± 1.56
Lungs Histology, number of medium tumours (M) (B16-F0 cells [3]; [18]): M 1.0 ± 0.6
Liver Histology, number of small tumours (S) (B16-F0 cells [3]; [19]): S 0.4 ± 0.24
Lungs Histology, number of small tumours (S) (B16-F0 cells [3]; [19]): S 2.5 ± 0.43
Liver Weight (B16-F0 cells [3]; [20]): 1.74 ± 0.05
Lungs Weight (B16-F0 cells [3]; [20]): 0.22 ± 0.02
Liver Tumours, D largest tumour mass, breadth (B16-F0 cells [3]; [21]): 2.3 ± 0.70
Liver Tumours, D largest tumour mass, length (B16-F0 cells [3]; [21]): D 2.63 ± 0.71 ×
Liver Tumours, number large (L) (B16-F0 cells [3]; [21]): L 2.5 ± 1.50
Liver Tumours, number medium (M) (B16-F0 cells [3]; [21]): M 2.0 ± 1.41
Liver Tumours, number small (S) (B16-F0 cells [3]; [21]): S 3.5 ± 1.32
Liver Tumours, percentage of tiny tumours (B16-F0 cells [3]; [21]): Tiny 0%
Lungs Tumours, D largest tumour mass, breadth (B16-F0 cells [3]; [21]): 1.08 ± 0.15
Lungs Tumours, D largest tumour mass, length (B16-F0 cells [3]; [21]): D 1.45 ± 0.13 ×
Lungs Tumours, number large (L) (B16-F0 cells [3]; [21]): L 0
Lungs Tumours, number medium (M) (B16-F0 cells [3]; [21]): M 0.5 ± 0.29
Lungs Tumours, number small (S) (B16-F0 cells [3]; [21]): S 7.75 ± 1.11
Lungs Tumours, percentage of tiny tumours (B16-F0 cells [3]; [21]): Tiny 60%
Liver Weight (B16-F0 cells [4]; [22]): 1.76 ± 0.16
Lungs Weight (B16-F0 cells [4]; [22]): 0.25 ± 0.03
Liver Tumours, D largest tumour mass, breadth (B16-F0 cells [4]; [23]): 4.44 ± 0.56
Liver Tumours, D largest tumour mass, length (B16-F0 cells [4]; [23]): D 5.64 ± 0.88 ×
Liver Tumours, number large (L) (B16-F0 cells [4]; [23]): L 6.4 ± 2.95
Liver Tumours, number medium (M) (B16-F0 cells [4]; [23]): M 2.8 ± 1.01
Liver Tumours, number small (S) (B16-F0 cells [4]; [23]): S 0.20 ± 0.20
Lungs Tumours, D largest tumour mass, breadth (B16-F0 cells [4]; [23]): 0.7 ± 0.20
Lungs Tumours, D largest tumour mass, length (B16-F0 cells [4]; [23]): D 1.35 ± 0.35 ×
Lungs Tumours, number large (L) (B16-F0 cells [4]; [23]): L 0
Lungs Tumours, number medium (M) (B16-F0 cells [4]; [23]): M 1.0 ± 0.6
Lungs Tumours, number small (S) (B16-F0 cells [4]; [23]): S 1.2 ± 0.73
Lungs Tumours, percentage of tiny tumours (B16-F0 cells [4]; [23]): Tiny 0%
Mean number of parasites ± SE (L. donovani liver parasite burdens) (Leishmania donovani): 2142 ± 249
Lung weight (B16 F0 cells [5]): 0.33 ± 0.02
Maximum aqueous solubility [6]: approximately 1 mg/ml
Share of the dose that reaches the lungs [7]: 0.1%
